# Laboratory results published in paper PMC6017477, “In Vitro ADME Properties of Two Novel Antimicrobial Peptoid-Based Compounds as Potential Agents against Canine Pyoderma” (Molecules : A Journal of Synthetic Chemistry and Natural …, 2018).
# Non-standard residues stand in square brackets, D forms with d. Residues, ends and D or L forms follow the SMILES beside them. N(1-naphthylmethyl)Gly = O=C(O)CNCc1cccc2ccccc12; N(4-MeBn)Gly = Cc1ccc(CNCC(=O)O)cc1; NBuGly = CCCCNCC(=O)O; Nlys = NCCCCNCC(=O)O
# Columns and labels:
# [1] = test system: dog plasma proteins; details: stated in the method for the control; no reference given; cited from earlier work
# [2] = test system: dog plasma proteins; assay: Plasma protein binding, rapid equilibrium dialysis; assay type: in vitro ADME
# Description: (§1) The plasma protein binding properties of candidate drugs can influence their efficacy, safety, and distribution. The fraction of peptoid bound to proteins of plasma collected from dogs was determined using rapid equilibrium dialysis.
# (§2) Plate inserts comprised two side-by-side chambers separated by a dialysis membrane (8K MWCO). The chambers contained […] plasma or 350 µL dialysis buffer (PBS buffer pH 7.4), respectively. Dogplasma lot was identical to the one used in the plasma stability assay. […] Plates were sealed and incubated at 37 °C for 4 h on a shaker. Each test was run in quadruplicate in dog plasma. Upon completion of the assay, the plasma protein binding was determined by protein precipitation with ACN of both plasma and PBS, and drug levels were quantified via LC-MS/MS as described above. The percentage of bound compounds was determined from peak areas using Equations (3) and (4):% free = (concentration buffer chamber/concentration plasma chamber) × 100%(3) % bound = 100% − % free(4)
# [3] = biological target: α-chymotrypsin (Bos taurus, UniProt P00766)
# Description: (§3) Solutions, concentrations, and reaction temperatures were selected according to manufacturer’s recommendations for total peptide digestion. A stock solution of 1 mM trypsin was prepared in 1 mM Tris HCl buffer solution containing 20 mM Ca^2+. […] Reaction was conducted at 37 °C for 6 h. Chymotrypsin was solubilized at 10 mg/mL in 1 mM HCl solution containing 2 mM CaCl2. […] Chymotrypsin reaction was conducted in 100 mM Tris HCl containing 10 mM CaCl2, pH 7.8 at 30 °C. […] At time 0, 3, and 6 h, 50 µL aliquots were removed for RP-HPLC analysis (see supplementary Materials, Section S3).
# [4] = UV-UPLC detection limit 1 µg/L
# Description: The experiment was repeated twice.
# The experiment was conducted in duplicate.
# [5] = Day 0 versus Day 1, UV-UPLC
# Description: 5-60% ACN in 2 minutes, 0.1% Formic Acid
# (Waters Acquity UV-UPLC, C18 column, 2.1x54 mm, T=60°C, equilibration time= 0.1 min)
# Table S4 Final gradient elution UV-UPLC method used for the LC-MS/MS experiments. %A and %B indicate the
# percentage of the mobile phases mixed at the given time. […]
# [6] = test system: Staphylococcus pseudintermedius; assay type: cell-based; details: irrespective of the strain being MSSP or MRSP; Mueller-Hinton broth, 35 °C, 16–20 h
# Description: Assays were performed by microbroth dilution of test compounds in Mueller-Hinton broth (MHB) in microtiter plates (Corning 96-well clear polypropylene round bottom plates, non-treated) according to the Clinical and Laboratory Standard Institute guidelines. The compounds were tested in concentrations ranging from 1 to 64 μg/mL (1, 2, 4, 8, 16, 32, 64 μg/mL). Briefly, bacteria were streaked on blood agar plates and incubated overnight at 37 °C. From these plates, colonies were suspended in saline solution and adjusted by nephelometer to obtain turbidity equivalent to a 0.5 McFarland standard. The suspension was diluted 1:100 in sterile 0.9% (w/v) saline, and 50 μL of this suspension was transferred to each well of the microtiter plate containing 50 μL of peptide solution in water, resulting in a concentration of 5 × 10^5 CFU/well. The microtiter plate was sealed and incubated at 35 °C for 16–20 h. Results were read by visual inspection.
# [7] = test system: human red blood cells; assay type: cell-based; details: 37 °C, 1 h
# Description: EC10 and EC50 values represent concentrations that result in 10 and 50% hemolysis, respectively. […] Briefly, two-fold serial dilutions (1 to 256 μg/mL) were incubated in PBS with a suspension of freshly withdrawn human red blood cells in PBS in 96-well v-shaped microtiter plates at 37 °C for 1 h covered with Microseal foil to avoid evaporation, and transferred to 96-well flat bottomed microtiter plates. The release of hemoglobin was detected by measuring the absorbance at 414 nm by a UV spectrophotometer (VERSAmax™ Tunable Microplate Reader, Molecular Devices, San José, CA, USA). PBS and melittin were used as negative and positive controls, respectively. All human blood samples were obtained after informed consent of the voluntary donors upon understanding of the research purposes, within local hospitals and according to local guidelines.
# [8] = test system: pronase; assay: in vitro; details: pronase from Streptomyces griseus, pH 8
# [9] = in vitro; details: liver microsomes
# Description: Liver microsomal assay is used to determine hepatic intrinsic clearance of a drug and identification and profile of metabolites across species. Evaluation of microsomal stability of compounds in different species is common procedure in the drug discovery process to evaluate different metabolites in case of instability.
# Dog and human microsomes were obtained from XenoTech LLC (Kansas City, KS, USA) and reconstituted in buffer containing D-(L)-isocitrate trisodium salt and 10 U/mL isocitrate dehydrogenase type IV glycerol solution (procine). […] The reaction was initiated by adding NADPH and substrate to reconstituted microsomes. A final concentration of 1 µM substrate was incubated with 0.5 mg/mL microsomes in the presence of 1 mM NADP^+ in 100 mM PBS with 1 mM MgCl2. Samples were collected at 0, 5, 10, 20, 30, and 60 min. The reaction was conducted at 37 °C before termination by addition of ACN, and analysis was conducted by LC-MS/MS (similar to the method described above). Controls with no drug and with no microsome regeneration system (buffer only) were included. All samples were prepared in triplicate. The rate of degradation by metabolism was measured on the basis of the difference of substrate concentration remaining at every time point. Metabolic half-lives were calculated as mentioned above.
# [10] = biological target: T1, trypsin (Bos taurus, UniProt P00760); assay: Stability to proteases: trypsin
# T1 sequence (P00760 24-246): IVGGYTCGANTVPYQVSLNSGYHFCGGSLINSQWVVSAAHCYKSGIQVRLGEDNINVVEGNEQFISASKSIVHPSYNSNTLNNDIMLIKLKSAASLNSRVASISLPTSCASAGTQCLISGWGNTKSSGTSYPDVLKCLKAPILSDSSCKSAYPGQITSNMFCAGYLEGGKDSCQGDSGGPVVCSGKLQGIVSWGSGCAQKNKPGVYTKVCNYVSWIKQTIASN
# Description: as §3, with “Reaction was conducted at 37 °C for 6 h.” left out
# [11] = Plasma protein binding, rapid equilibrium dialysis; assay type: in vitro ADME, dog; details: Beagle, dog; for recovery at 4 h, 30.8 µM: pH 7.4, % Average Recovery; for fraction unbound at 4 h, 30.8 µM: plasma
# Description: as §1, §2
# [12] = in vitro; assay type: cell-based; details: dog
# Description: B1 and D2 were designed on the basis that the majority of antimicrobial peptides are cationic and hydrophobic. We envisaged that short linear peptide-peptoid hybrids consisting of cationic lysines and hydrophobic peptoid residues would result in derivatives with potent antibacterial activity and low cytotoxicity. […] Repeated experiments on different days with different human blood samples confirmed the results.
# [13] = in vitro; details: Beagle, dog
# Description: Plasma stability was determined by incubation of a known concentration of the peptoid/hybrid of interest with dog plasma up to 60 min at 37 °C and analyzing the concentration of the peptide in the supernatant by LC-MS/MS after protein precipitation. Results are presented as average of triplicates from a single donor.
# Dog plasma was collected from a single Beagle dog at the research facilities of Zoetis Animal Health (Kalamazoo, MI, USA) and frozen immediately until use. […] Test compounds were added to plasma diluted 1:1 with PBS buffer pH 7.4 and preheated for 5 min at 37 °C. Samples were removed at 0, 5, 10, 20, 30, and 60 min. The reaction was stopped by protein precipitation by adding a 9:1 (v/v) ACN:MeOH mixture followed by centrifugation at 10,000 rpm for 5 min, and the remaining amount of intact test compounds in the supernatant was quantified via API Sciex 4000Q LC-MS/MS (Framingham, MA, USA) (coupled with an HPLC column to filter off the plasma proteins—see Supplementary Materials, Section S6) upon completion of the assay. Experiments were performed in quadruplicate.
# [14] = In vitro drug release from formulations, Franz cell with cellulose membrane; assay type: physicochemical
# Description: Release was evaluated as function of the amount of peptide diffused through a cellulose membrane in the receptor of a Franz cell and detected via RP-HPLC from 0 to 8 h.
# An oil-in-water cream and an ointment were prepared as described by Danish Health and Medicines Authority. For the oil-in-water cream, ingredients of the oil phase (Table 3) were melted on a water bath at 70 °C and mixed with the water phase, which was previously brought to boil and cooled down to 65–70 °C. The mixture was stirred until cooled. The ointment formulation was prepared by mixing melted Vaseline (80%) with paraffin oil (20%) on a water bath and allowed to cool under stirring. The cold method was used for preparation of the 20% (w/w) poloxamer gel, where the poloxamer powder was dissolved in purified water at 4 °C and subsequently left overnight at 2–8 °C to stabilize. All formulations were stored at 4 °C for maximum seven days before use. […] For the hydrogel, the compounds dissolved in water were mixed with the cold poloxamer solution before gelling at room temperature.
# Approximately 200 µL of each formulation was filled into the donor chambers of the Franz cells via a 1 mL syringe ensuring contact with the cellulose membrane separating the donor compartment from the receptor compartment. The donor compartment was maintained at room temperature (25 ± 1 °C) and the membrane diffusion area was 1.57 cm^2. […] The receptor medium (3 mL PBS, pH 7.4) was stirred using magnetic stirring and thermo-regulated to 36 °C by a water jacket. Samples (200 μL) were collected from the receptor compartment through the sampling port over 8 h, and the withdrawn volume was replaced with an equal volume of buffer at every time point. The samples were analyzed by a Waters 600E RP-HPLC equipped with Empower 3 software (Waters Corporation, Milford, MA, USA): 30 min run time with 20 min linear gradient from 0.1% (v/v) TFA in water to 30% (v/v) ACN:H2O with 0.1% (v/v) TFA (90:10). […] Experiments were performed in duplicate.
# [15] = test system: pronase; details: 37 °C, RP-HPLC peak areas
# [16] = dog plasma, 4 h incubation, 37 °C
# [17] = pH 7.4, % Unbound (free fraction)
# [18] = Beagle, dog, 4 h, 30.8 µM, pH 7.4
compound,measurement,setting,value
"CS(=O)(=O)CC(=O)N1CC2(C1)OCc1cc(C3=NO[C@@](c4cc(Cl)c(F)c(Cl)c4)(C(F)(F)F)C3)ccc12 [Control, sarolaner, reference compound]",protein bound (known value of the control compound),[1],> 99%
same,% Unbound (free fraction),[2]; [16],0.27%
same,Bound to plasma proteins,[2]; [16],99.7%
same,% Average Recovery,"[2]; dog plasma, 4 h incubation, n = 4",67.1%
CCCCN(CC(=O)N[C@@H](CCCCN)C(=O)N(CC(=O)N(CC(=O)N(CC(N)=O)Cc1cccc2ccccc12)Cc1ccc(C)cc1)Cc1cccc2ccccc12)C(=O)[C@H](CCCCN)NC(=O)[C@@H](N)CCCCN [Compound B1] (H-KK[NBuGly]K[N(1-naphthylmethyl)Gly][N(4-MeBn)Gly][N(1-naphthylmethyl)Gly]-NH2),degradation after α-chymotrypsin exposure,[3],no degradation
same,skin penetration from 50% transcutol formulation after 24 h,[4],No penetration
same,stability in 50% transcutol in acetate buffer pH 5,[5],stable
same,Minimum inhibitory concentration (MIC),[6],2 to 4 µg/mL
same,"EC50, concentration resulting in 50% hemolysis of erythrocytes",[7],219 µg/mL
same,"metabolised at 24 h, 0.2 µM",[8],38%
same,half-life at 1 µM,[9]; dog,> 2 h
same,half-life at 1 µM,[9]; human,> 2 h
same,"remaining at 1 h, 1 µM",[9],100%
same,"metabolised at 24 h, 1 mg/mL",[10]; isolated enzyme trypsin,6%
same,"recovery at 4 h, 30.8 µM",[11],> 70%
same,"fraction unbound at 4 h, 30.8 µM",[11]; [17],0.0016
same,% Average Recovery,[2]; [18],75.6%
same,hemolysis at 150 µM,[12],45%
same,half-life,"[13]; dog plasma diluted 1:1 with PBS, pH 7.4, Half-life in plasma (dog), dog plasma, 37 °C, incubation up to 60 min, LC-MS/MS",~0.5 h
same,half-life,"[13]; dog plasma diluted 1:1 with PBS, pH 7.4, stability to plasma proteases (half-life), in hours",0.5 h
CCCCN(CC(N)=O)C(=O)CN(CCCCN)C(=O)CN(Cc1cccc2ccccc12)C(=O)CN(CCCCN)C(=O)CN(Cc1ccc(C)cc1)C(=O)CN(Cc1cccc2ccccc12)C(=O)CN(CCCCN)C(=O)CNCCCCN [Compound D2] (H-[Nlys][Nlys][N(1-naphthylmethyl)Gly][N(4-MeBn)Gly][Nlys][N(1-naphthylmethyl)Gly][Nlys][NBuGly]-NH2),degradation after α-chymotrypsin exposure,[3],no degradation
same,Minimum inhibitory concentration (MIC),[6],2 to 4 µg/mL
same,"metabolised at 24 h, 0.2 µM",[8],0.2%
same,release from 20% poloxamer gel after eight hours,"[14]; 20% poloxamer gel, 8 h",no detectable release
same,release kinetics from oil-in-water cream,[14]; oil-in-water cream,zero-order kinetics
same,release from ointment after eight hours,"[14]; ointment, 8 h",no detectable release
same,half-life,[9]; dog,> 2 h
same,half-life,[9]; human,> 2 h
same,"remaining at 1 h, 1 µM",[9],77%
same,degradation after 24 h of incubation with trypsin,[10],no degradation
same,"recovery at 4 h, 30.8 µM",[11],> 70%
same,"fraction unbound at 4 h, 30.8 µM",[11]; [17],0.0143
same,"fraction unbound at 4 h, 30.8 µM","[11]; pH 7.4, Bound to plasma proteins",< 0.02
same,% Average Recovery,[2]; [18],70.8%
same,Bound to plasma proteins,"[2]; Beagle, dog, plasma, 4 h, 30.8 µM, pH 7.4",98.6%
same,hemolysis at 150 µM,[12],22%
same,degradation after 24 h incubation with pronase,[15],shows stability
same,half-life,"[13]; plasma, pH 7.4, Half-life in plasma (dog), dog plasma, 37 °C, incubation up to 60 min, LC-MS/MS",> 2 h
